In data set [1] the test system is non-iron overloaded, fasted rats. Nature of the data set: Iron clearance in bile duct-cannulated rats. As to conditions: male Sprague-Dawley rats. The format is in vivo. The protocol: (S)-2-(4′,5′-dimethoxyphenyl)-4-thiazoline-4-carboxylic acid (1) was administered to non-iron overloaded, fasted rats that had been subjected to routine bile duct cannulation. Briefly, male Sprague-Dawley rats averaging 450 g were housed in Nalgene plastic metabolic cages during the experimental period and given free access to water. The animals were anesthetized using sodium pentobarbital (55 mg/kg) administered intraperitoneally. The bile duct was cannulated using 22-gauge polyethylene tubing. The cannula was inserted into the duct about 1 cm from the duodenum and tied snugly in place. After threading through the shoulder, the cannula was passed from the rat to the swivel inside a metal torque-transmitting tether, which was attached to a rodent jacket around the animal's chest. The cannula was directed from the rat to a Gilson microfraction collector (Middleton, Wis.) by a fluid swivel mounted above the metabolic cage. Bile samples were collected at 3 hour intervals for 24 hours. The urine sample was taken at 24 hours and handling was as previously described in Bergeron, R. J., et al., J Med Chem. 34:2072-2078 (1991), the contents of which are incorporated herein by reference.

Data set [2] has as its system iron-overloaded Cebus apella monkeys. Description: Iron clearance in iron-overloaded Cebus apella monkeys. The class given is in vivo. To be noted: oral. The protocol: (S)-2-(4′,5′-dimethoxyphenyl)-4-methylthiazoline-4-carboxylic acid (2) was administered to iron-overloaded Cebus apella monkeys. The protocol can be found in Bergeron, R. J. et al., “Methoxylatoin of Desazadesferrithiocin Analogues: Enhanced Iron Clearing Efficiency,” J Med Chem. 46:1470-1477 (2003), the contents of which are incorporated herein by reference. Briefly, the monkeys were iron overloaded with iron dextran administered intravenously to result in an iron loading of about 500 mg per kg of body weight. At least 20 half-lives, 60 days, elapsed before the animals were used in experiments evaluating iron chelators. The iron chelator was solubilized in 40% Cremophor RH-40/water (v/v) and were administered orally to the monkeys. Fecal and urine samples were collected at 24 hour intervals beginning 4 days prior to the administration of an iron chelator and continued for 5 days after the chelator was administered. Iron concentrations in stool and urine were determined by flame atomic absorption spectroscopy. Iron chelator efficiency was calculated by dividing the net iron clearance [total iron excretion (stool plus urine) minus background] by the theoretical iron clearance and multiplying by 100. The theoretical clearance of the iron chelator was generated on the basis of a 2:1 ligand/iron complex. At a dose of 114.2 μmol/kg, the efficiency of 2 was calculated to be 14.8±2.9%. […] Approximately 20% of the iron was excreted in the urine, while the majority (approximately 80%) was eliminated in the feces. In a separate experiment, 2 was administered to iron overloaded Cebus apella at a dose of 150 μmol/kg. In this experiment, the iron clearing efficiency was calculated to be 16.1±4.1%. This efficiency was within error of the lower dose of 2 […].

The values that follow come from patent US8604216B2, “Desferrithiocin derivatives and methods of use thereof” (University of Florida Research Foundation, Inc., priority 2003, dated 2013).

For the compound `COc1ccc([C@H]2NC(C(=O)O)=CS2)cc1OC` [Compound 1, (S)-2-(4′,5′-dimethoxyphenyl)-4-thiazoline-4-carboxylic acid], the tolerability result in data set [1] was “tolerated the drug well”. Moreover, in data set [1] (bile collected for 24 hours, urine at 24 hours), the “efficiency of iron excretion” value is listed as “less than 0.5%”.
As to `COc1ccc(C2=N[C@@](C)(C(=O)O)CS2)cc1OC` [Compound 2, (S)-2-(4′,5′-dimethoxyphenyl)-4-methylthiazoline-4-carboxylic acid], the “share of iron eliminated in the feces” value in data set [2] (114.2 μmol/kg) was “approximately 80%”. In data set [2] (114.2 μmol/kg), the “share of iron excreted in the urine” value is recorded as “Approximately 20%”. For the same compound, the iron clearing efficiency in data set [2] (114.2 μmol/kg, in 40% Cremophor RH-40/water, stool plus urine iron minus background vs theoretical 2:1 ligand/iron complex) amounted to 14.8±2.9%; in data set [2] (150 μmol/kg, separate experiment) it was 16.1±4.1%.
